ChEMBL document CHEMBL5465560, “Selectivity Literature for EUbOPEN Chemogenomic Library” (2024)
Values belong to the compound of their own block, whether it stands above or below them.

Columns and labels:
[1] = target: Receptor tyrosine-protein kinase erbB-2 (Homo sapiens, UniProt P04626); assay: Selectivity interaction (KinomeScan (DiscoverX)) EUB0000618a ERBB2; conditions: at 10 µM
[2] = target: Serine/threonine-protein kinase PLK1 (Homo sapiens, UniProt P53350); assay: Selectivity interaction (KinomeScan (DiscoverX)) EUB0000607a PLK1; conditions: at 10 µM
[3] = target: T1, Serine/threonine-protein kinase 36 (Homo sapiens) (UniProt Q9NRP7); assay: Selectivity interaction (KinomeScan (DiscoverX)) EUB0000607a STK36; conditions: at 10 µM
T1 sequence (whole entry): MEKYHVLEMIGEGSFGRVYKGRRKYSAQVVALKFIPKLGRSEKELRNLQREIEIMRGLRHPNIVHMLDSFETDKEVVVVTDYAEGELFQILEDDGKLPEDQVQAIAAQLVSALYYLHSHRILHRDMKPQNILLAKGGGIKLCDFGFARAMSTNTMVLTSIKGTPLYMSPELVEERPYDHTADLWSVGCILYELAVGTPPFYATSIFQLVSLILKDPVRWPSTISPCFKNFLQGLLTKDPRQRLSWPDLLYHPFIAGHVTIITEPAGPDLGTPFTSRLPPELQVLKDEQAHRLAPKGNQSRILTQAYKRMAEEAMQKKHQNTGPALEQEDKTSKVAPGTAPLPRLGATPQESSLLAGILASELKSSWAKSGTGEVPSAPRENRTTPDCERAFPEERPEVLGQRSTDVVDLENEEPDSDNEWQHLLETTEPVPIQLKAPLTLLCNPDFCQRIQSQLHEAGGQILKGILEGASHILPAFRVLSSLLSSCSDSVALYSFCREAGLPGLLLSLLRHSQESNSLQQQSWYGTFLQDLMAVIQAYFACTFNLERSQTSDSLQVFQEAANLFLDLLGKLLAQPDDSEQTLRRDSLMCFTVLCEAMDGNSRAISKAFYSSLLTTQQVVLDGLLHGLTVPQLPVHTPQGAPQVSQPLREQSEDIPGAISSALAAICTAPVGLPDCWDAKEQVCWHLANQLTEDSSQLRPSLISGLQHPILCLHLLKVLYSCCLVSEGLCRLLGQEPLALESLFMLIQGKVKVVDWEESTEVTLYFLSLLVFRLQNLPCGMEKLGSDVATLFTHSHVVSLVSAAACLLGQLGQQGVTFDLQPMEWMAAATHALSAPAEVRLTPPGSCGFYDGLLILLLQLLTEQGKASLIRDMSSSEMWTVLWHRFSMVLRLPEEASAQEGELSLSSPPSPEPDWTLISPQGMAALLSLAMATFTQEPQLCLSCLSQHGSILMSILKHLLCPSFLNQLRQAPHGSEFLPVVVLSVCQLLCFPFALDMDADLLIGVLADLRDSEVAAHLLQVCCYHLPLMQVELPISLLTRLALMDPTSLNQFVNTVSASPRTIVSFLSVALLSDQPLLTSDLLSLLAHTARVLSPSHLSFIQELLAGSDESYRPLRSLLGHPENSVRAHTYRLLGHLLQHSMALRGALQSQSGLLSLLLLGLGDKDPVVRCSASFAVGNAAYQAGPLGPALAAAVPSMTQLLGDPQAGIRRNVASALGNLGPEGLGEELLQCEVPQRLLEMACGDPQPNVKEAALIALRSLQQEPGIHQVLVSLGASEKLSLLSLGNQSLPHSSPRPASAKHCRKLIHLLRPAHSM

[4] = target: Serine/threonine-protein kinase NIM1 (Homo sapiens, UniProt Q8IY84); assay: Selectivity interaction (KinomeScan (DiscoverX)) EUB0001619a NIM1K; conditions: at 1 µM
[5] = target: T2, Serine/threonine-protein kinase RIO1 (Homo sapiens) (UniProt Q9BRS2); assay: Selectivity interaction (KinomeScan (DiscoverX)) EUB0000045b RIOK1
T2 sequence (whole entry): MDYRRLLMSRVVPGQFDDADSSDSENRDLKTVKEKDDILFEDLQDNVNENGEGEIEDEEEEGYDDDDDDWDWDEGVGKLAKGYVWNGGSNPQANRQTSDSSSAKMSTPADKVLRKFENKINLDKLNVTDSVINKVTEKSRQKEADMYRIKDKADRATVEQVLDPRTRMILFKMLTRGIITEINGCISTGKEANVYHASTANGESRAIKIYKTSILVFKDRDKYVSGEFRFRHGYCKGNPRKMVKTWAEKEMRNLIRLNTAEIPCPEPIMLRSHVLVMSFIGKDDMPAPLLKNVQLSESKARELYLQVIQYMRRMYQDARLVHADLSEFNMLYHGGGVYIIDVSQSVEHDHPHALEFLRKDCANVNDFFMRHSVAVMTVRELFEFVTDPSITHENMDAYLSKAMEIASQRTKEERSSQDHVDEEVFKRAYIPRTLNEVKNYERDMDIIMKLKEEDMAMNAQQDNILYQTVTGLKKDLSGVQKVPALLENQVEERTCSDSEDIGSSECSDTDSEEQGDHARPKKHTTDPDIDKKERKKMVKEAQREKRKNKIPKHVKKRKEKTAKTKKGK

[6] = target: Protein kinase C eta type (Homo sapiens) (UniProt P24723); assay: Selectivity interaction (Upstate Kinase Profiler service (Millipore)) EUB0000056c PRKCH; conditions: at 1 µM
[7] = target: T3, Testis-specific serine/threonine-protein kinase 1 (Homo sapiens) (UniProt Q9BXA7); conditions: at 10 µM
T3 sequence (whole entry): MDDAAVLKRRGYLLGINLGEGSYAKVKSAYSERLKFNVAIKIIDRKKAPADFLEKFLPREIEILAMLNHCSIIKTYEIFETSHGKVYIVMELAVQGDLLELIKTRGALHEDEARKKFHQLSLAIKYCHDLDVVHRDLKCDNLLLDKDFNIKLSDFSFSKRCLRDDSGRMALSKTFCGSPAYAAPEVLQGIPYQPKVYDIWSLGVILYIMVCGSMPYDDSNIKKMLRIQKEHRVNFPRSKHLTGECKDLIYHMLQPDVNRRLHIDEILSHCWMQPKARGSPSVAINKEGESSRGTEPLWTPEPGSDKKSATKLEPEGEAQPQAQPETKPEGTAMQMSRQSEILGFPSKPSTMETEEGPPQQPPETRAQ

[8] = target: Platelet-derived growth factor receptor alpha (Homo sapiens, UniProt P16234); assay: Selectivity interaction (Kinase panel (Invitrogen)) EUB0000639a PDGFRA; conditions: at 200 nM
Sequence of Platelet-derived growth factor receptor alpha (P16234 whole entry): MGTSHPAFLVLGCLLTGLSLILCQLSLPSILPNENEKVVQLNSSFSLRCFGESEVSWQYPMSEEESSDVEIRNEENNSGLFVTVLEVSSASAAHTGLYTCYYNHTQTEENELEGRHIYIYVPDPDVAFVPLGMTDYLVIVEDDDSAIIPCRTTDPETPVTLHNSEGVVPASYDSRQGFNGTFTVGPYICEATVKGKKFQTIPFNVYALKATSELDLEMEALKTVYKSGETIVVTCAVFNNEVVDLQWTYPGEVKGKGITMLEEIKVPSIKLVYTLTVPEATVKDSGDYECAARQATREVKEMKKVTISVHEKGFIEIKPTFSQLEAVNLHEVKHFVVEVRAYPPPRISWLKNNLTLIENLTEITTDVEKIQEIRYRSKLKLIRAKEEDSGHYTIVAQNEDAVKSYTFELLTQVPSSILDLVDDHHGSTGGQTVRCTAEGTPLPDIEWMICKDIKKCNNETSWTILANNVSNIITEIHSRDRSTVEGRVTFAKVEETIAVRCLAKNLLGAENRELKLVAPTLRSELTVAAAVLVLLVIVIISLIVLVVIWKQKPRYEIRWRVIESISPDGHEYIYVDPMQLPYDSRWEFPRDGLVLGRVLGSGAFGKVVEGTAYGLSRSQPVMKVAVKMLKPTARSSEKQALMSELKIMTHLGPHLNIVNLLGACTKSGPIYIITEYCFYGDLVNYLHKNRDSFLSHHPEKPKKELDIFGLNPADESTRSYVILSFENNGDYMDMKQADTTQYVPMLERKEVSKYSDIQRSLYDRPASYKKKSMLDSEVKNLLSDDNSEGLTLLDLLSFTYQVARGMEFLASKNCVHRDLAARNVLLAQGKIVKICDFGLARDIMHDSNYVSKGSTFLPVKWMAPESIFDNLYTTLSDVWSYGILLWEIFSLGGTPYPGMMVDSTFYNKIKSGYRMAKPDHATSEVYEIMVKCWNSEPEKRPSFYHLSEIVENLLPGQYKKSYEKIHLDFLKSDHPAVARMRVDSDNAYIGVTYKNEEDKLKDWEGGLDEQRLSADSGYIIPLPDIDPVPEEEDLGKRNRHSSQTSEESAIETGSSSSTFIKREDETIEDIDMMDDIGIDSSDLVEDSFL

Sequence of Receptor tyrosine-protein kinase erbB-2 (P04626 whole entry): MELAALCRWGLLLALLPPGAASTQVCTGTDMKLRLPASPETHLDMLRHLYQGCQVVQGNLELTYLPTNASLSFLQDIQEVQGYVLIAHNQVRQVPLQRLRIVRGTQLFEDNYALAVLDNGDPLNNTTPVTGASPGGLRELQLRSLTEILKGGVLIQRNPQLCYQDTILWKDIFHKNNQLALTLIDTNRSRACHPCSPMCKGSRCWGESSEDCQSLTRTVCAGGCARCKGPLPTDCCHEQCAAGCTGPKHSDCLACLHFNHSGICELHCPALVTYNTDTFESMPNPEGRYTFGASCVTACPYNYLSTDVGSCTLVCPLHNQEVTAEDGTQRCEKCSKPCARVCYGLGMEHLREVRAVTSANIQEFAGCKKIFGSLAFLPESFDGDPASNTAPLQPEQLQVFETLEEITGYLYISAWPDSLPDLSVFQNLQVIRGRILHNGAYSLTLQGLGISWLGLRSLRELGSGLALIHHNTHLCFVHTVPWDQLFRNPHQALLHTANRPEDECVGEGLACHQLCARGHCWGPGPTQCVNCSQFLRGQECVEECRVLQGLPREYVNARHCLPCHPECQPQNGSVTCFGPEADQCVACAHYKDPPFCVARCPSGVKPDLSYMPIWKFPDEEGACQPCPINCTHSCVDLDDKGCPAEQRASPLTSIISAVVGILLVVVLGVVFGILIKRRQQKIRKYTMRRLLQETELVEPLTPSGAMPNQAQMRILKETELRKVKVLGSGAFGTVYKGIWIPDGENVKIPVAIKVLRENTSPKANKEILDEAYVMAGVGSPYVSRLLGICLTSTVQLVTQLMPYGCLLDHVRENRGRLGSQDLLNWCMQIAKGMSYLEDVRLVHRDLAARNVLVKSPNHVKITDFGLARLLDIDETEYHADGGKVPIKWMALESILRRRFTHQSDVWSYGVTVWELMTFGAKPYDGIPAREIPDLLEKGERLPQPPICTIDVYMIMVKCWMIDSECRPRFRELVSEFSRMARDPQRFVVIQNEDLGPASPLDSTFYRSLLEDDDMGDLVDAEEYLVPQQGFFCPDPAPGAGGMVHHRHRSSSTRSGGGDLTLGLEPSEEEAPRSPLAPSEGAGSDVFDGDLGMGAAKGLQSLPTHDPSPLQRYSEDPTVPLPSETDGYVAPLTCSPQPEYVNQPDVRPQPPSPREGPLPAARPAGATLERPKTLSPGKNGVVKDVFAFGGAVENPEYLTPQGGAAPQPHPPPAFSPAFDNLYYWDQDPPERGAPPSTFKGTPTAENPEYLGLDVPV
Sequence of Serine/threonine-protein kinase PLK1 (P53350 whole entry): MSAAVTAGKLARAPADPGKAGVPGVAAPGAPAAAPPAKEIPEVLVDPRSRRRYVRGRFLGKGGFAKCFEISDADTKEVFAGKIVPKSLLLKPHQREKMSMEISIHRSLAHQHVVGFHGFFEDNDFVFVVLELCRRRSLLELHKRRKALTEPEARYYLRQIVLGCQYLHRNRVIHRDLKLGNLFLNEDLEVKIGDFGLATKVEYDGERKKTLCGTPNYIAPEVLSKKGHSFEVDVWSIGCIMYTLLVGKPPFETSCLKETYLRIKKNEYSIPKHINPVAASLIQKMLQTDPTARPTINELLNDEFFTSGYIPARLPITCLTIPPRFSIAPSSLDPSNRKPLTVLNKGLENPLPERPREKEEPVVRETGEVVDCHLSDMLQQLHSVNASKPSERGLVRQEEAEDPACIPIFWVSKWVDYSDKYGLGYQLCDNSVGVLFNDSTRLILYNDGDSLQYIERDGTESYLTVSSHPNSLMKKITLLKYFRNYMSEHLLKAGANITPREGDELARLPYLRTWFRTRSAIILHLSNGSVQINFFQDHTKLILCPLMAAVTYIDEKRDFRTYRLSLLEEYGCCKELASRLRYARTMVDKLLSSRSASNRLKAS
Sequence of Protein kinase C eta type (Homo sapiens) (P24723 whole entry): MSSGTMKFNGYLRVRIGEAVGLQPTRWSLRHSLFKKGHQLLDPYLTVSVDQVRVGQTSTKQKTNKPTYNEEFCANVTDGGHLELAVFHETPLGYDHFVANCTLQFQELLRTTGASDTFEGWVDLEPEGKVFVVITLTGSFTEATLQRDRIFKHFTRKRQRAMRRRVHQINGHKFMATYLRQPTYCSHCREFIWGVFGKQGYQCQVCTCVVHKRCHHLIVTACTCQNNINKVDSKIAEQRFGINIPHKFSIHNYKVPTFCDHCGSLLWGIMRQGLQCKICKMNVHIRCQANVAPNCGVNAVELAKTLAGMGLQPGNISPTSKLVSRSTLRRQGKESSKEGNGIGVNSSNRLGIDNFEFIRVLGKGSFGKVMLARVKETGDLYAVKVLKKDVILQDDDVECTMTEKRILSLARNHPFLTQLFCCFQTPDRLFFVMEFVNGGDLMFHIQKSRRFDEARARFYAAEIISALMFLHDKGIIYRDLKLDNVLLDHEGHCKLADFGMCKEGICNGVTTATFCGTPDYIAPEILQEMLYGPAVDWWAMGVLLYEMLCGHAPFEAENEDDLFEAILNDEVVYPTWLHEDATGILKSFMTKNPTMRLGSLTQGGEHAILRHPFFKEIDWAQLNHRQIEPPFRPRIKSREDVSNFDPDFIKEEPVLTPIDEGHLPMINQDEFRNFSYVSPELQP
Sequence of Serine/threonine-protein kinase NIM1 (Q8IY84 whole entry): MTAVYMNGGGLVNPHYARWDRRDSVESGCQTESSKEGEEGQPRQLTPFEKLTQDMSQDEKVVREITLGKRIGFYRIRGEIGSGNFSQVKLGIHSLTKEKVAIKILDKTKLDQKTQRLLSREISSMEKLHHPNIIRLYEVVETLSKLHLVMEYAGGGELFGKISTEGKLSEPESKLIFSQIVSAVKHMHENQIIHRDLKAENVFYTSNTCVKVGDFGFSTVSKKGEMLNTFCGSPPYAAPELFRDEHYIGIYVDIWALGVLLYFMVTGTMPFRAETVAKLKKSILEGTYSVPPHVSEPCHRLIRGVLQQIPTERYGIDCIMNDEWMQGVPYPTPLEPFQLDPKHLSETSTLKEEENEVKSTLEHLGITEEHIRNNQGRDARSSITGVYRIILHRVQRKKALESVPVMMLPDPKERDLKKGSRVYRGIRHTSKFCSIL

SMILES: O[C@H]1CC[C@H](Nc2ncc3nc(Nc4c(F)cc(F)cc4F)n([C@H]4CCOC4)c3n2)CC1
% of control [1]: 52%

SMILES: CNC(=O)Nc1ccc(-c2nc(N3CC4CCC(C3)O4)c3cnn(C4CCC5(CC4)OCCO5)c3n2)cc1
% of control [2]: 77%
% of control [3]: 96%

SMILES: N#Cc1cccc(-c2c[nH]c3ncnc(N4CCOCC4)c23)c1
% of control [4]: 80%

SMILES: C=CC(=O)Nc1cc(-n2c(=O)ccc3cnc4ccc(-c5ccc(NS(C)(=O)=O)cc5)cc4c32)ccc1C
% of control ([5]; at 1 µM): 20%
% of control ([5]; at 10 µM): 52%

% of inhibition [6]: 6%
SMILES: Cc1ccc(-c2ccc3c(ccc4sc5c(c43)NC[C@@H](C)NC5=O)n2)cn1

SMILES: Cc1cc([C@@H](C)Nc2ccccc2C(=O)O)c2nc(N3CCOCC3)cc(=O)n2c1 [AZD-6482]
% of control [7]: 100%

% of inhibition [8]: -1.69%
SMILES: CC[C@@H]1[C@H](F)C(=O)N[C@@H]1COc1nccc2cc(C(N)=O)c(OC)cc12 [ZIMLOVISERTIB]
